Entries after “also recorded” stand apart in the source; their conditions may differ. Counter-ions that a name gives are not always drawn. Like-named read-outs stand apart in the source and are kept apart here.
Experiments:
[1] = system: metabolically-resistant Hikone-R strain of Drosophila (elevated cytochrome P450); assay type: in vivo
Protocol: (§1) Four Drosophila strains were used, all obtained from the Bloomington Drosophila Stock Center (Indiana University; Bloomington, Ind.). The Canton-S strain was used as the insecticide-susceptible standard. […] Two resistant neurological-mutant strains were also tested. […] Flies were reared in 100-ml vials capped with acetate plugs (Fisher Scientific; Suwanee, Ga.) on a commercial diet (JAZZ-MIX; Fisher Scientific). […] Mixed-sex adults, less than 1-wk old, were used in bioassays.
(§2) All volatile insecticide stocks were prepared at 100 μg/μl in analytical grade acetone. Rather than weigh the highly volatile liquid insecticides (i.e., all compounds except benzothiophene), weight was determined based on the density-volume relationship of each compound. […] The insecticide synergists PBO (piperonyl butoxide) and DEF (SSS-tributyl-phosphoro-trithioate) were obtained from Fluka Chemical Co. (Basel, Switzerland) and Mobay Chemical Co. (Kansas City, Mo.). […] Synergist stocks were prepared at 100 μg/ml in analytical grade acetone.
(§3) Briefly, bioassays took place in 0.5-l glass jars with metal lids. Mixed-sex flies were isolated from lab colonies and placed in 4-ml dram vials in groups of ten, along with a dried piece of laboratory diet. The dram vials were capped with open-top septum caps that were covered with fine mesh (held in place by non-toxic glue). For bioassays, the assembled dram vials were placed into the 0.5-l jars along with a folded filter paper “tent” (Whatman #1; Vineland, N.J.). The filter paper was treated with either an insecticide dilution or acetone, the jar was sealed with the metal lid, and the bioassay proceeded for 24-hr at room temperature. Mortality was scored based on a complete lack of movement by the flies. Four concentrations plus an acetone control were tested for all insecticides. Between five and ten replicates were performed for each concentration range on each strain-insecticide combination. Synergist bioassays were performed with a slight modification. Synergist stocks were applied to dram vials at 100 μl per vial to provide assay concentrations of 10 μg per vial. […] After treatment, vials were held at an angle in a fume hood and rotated ¼-turn each minute until the acetone evaporated. Flies and diet were added as above and held for 1-hr. Assays were initiated, run, and scored as above.
(§4) Probit analysis was performed using PROC PROBIT in the SAS software package (SAS Institute; Cary, N.C.). If control mortality ever exceeded 10% in a given replicate, that replicate was discarded.

[2] = system: para-ts1 (para-R) strain of Drosophila (sodium channel point mutation); assay type: in vivo; details: significance at p<0.05, method of Robertson and Preisler
Protocol: as §1, §2, §3, §4

[3] = system: Rd1 (Rdl-R) strain of Drosophila (GABA-gated chloride channel point mutation); assay type: in vivo, Drosophila melanogaster
Source text: (§5) Four Drosophila strains were used, all obtained from the Bloomington Drosophila Stock Center (Indiana University; Bloomington, Ind.). The Canton-S strain was used as the insecticide-susceptible standard. The Hikone-R strain is metabolically-resistant with elevated cytochrome P450 levels (Waters et al., 1984; Sundseth et al., 1989; Le Goff et al., 2003; Festucci-Buselli et al., 2005). Hikone-R is resistant to a number of insecticides, including malathion, DDT and neonicotinoids (Sundseth et al., 1989; Daborn et al., 2001). Two resistant neurological-mutant strains were also tested. […] Flies were reared in 100-ml vials capped with acetate plugs (Fisher Scientific; Suwanee, Ga.) on a commercial diet (JAZZ-MIX; Fisher Scientific). Flies were reared on a 12:12 photocycle at 24° C. and 60% relative humidity. Mixed-sex adults, less than 1-wk old, were used in bioassays.
(§6) All experimental materials were purchased from Sigma-Aldrich-Fluka (Milwaukee, Wis.) and were of 99% purity or greater. […] All volatile insecticide stocks were prepared at 100 μg/μl in analytical grade acetone. Rather than weigh the highly volatile liquid insecticides (i.e., all compounds except benzothiophene), weight was determined based on the density-volume relationship of each compound. Four serial dilutions were prepared and tested for each insecticide as described previously (Scharf et al., 2006). The insecticide synergists PBO (piperonyl butoxide) and DEF (SSS-tributyl-phosphoro-trithioate) were obtained from Fluka Chemical Co. (Basel, Switzerland) and Mobay Chemical Co. (Kansas City, Mo.). Both synergists were >95% purity. Synergist stocks were prepared at 100 μg/ml in analytical grade acetone.
(§7) Volatility bioassays were conducted exactly as described in a previous report (Scharf et al., 2006). Briefly, bioassays took place in 0.5-l glass jars with metal lids. Mixed-sex flies were isolated from lab colonies and placed in 4-ml dram vials in groups of ten, along with a dried piece of laboratory diet. The dram vials were capped with open-top septum caps that were covered with fine mesh (held in place by non-toxic glue). For bioassays, the assembled dram vials were placed into the 0.5-l jars along with a folded filter paper “tent” (Whatman #1; Vineland, N.J.). The filter paper was treated with either an insecticide dilution or acetone, the jar was sealed with the metal lid, and the bioassay proceeded for 24-hr at room temperature. Mortality was scored based on a complete lack of movement by the flies. Four concentrations plus an acetone control were tested for all insecticides. Between five and ten replicates were performed for each concentration range on each strain-insecticide combination. Synergist bioassays were performed with a slight modification. Synergist stocks were applied to dram vials at 100 μl per vial to provide assay concentrations of 10 μg per vial. […] After treatment, vials were held at an angle in a fume hood and rotated ¼-turn each minute until the acetone evaporated. Flies and diet were added as above and held for 1-hr. Assays were initiated, run, and scored as above.
(§8) Probit analysis was performed using PROC PROBIT in the SAS software package (SAS Institute; Cary, N.C.). If control mortality ever exceeded 10% in a given replicate, that replicate was discarded. Toxicity and synergist ratios at LC50 were compared statistically using the calculation described by Robertson and Preisler (1992). Using this procedure, ratios with 95% confidence intervals were calculated using a spreadsheet-based program. With this calculation, if confidence intervals include 1.0 then ratios are considered non-significant (p>0.05; Robertson and Preisler, 1992).

[4] = system: insecticide-susceptible Canton-S strain of Drosophila; assay type: in vivo
Protocol: as §6, §7, §8

[5] = system: metabolically resistant Hikone-R strain of Drosophila; assay type: in vivo; details: Hikone, FIG. 6
Protocol: as §6, §7, §8

[6] = system: insecticide-susceptible Drosophila melanogaster (Canton-S strain); assay type: in vivo; details: in vivo
Protocol: The insecticide-susceptible Canton-S strain of Drosophila was obtained from the Bloomington Drosophila stock center (Indiana University, Bloomington, Ind.), and used exclusively in all studies. Flies were reared in 100-ml vials capped with acetate plugs (Fisher Scientific; Suwannee, Ga.) on a JAZZ-MIX diet (Fisher) prepared with a 2:1 ratio of water to apple juice. Flies were reared on a 12:12 photocycle at 24° C. and ambient relative humidity. Mixed-sex adults, less than 1-wk old, were used in bioassays.
Flies were briefly anesthetized in rearing vials with a pulse of CO2 and transferred to a CO2 flowbed (Genesee Scientific; San Diego, Calif.). Using a camel hair brush and a 5×5 cm sheet of rice paper, ten flies were placed into 7.0 ml dram vials. Prior to adding flies, each vial received a 0.5 cm^3 block of rearing diet that had been sufficiently dried on a paper towel to remove excessive moisture. The vials were then capped with open-top septum caps (Fisher) that were covered with fine mesh. The mesh was applied to the septum caps in advance using hot glue; it prevented fly escape but readily permitted gas exchange. The flies were allowed 1-hr to recover from the CO2 anesthesia. After one hour, single vials with flies were placed into 0.5 L glass jars, along with a filter paper tent (see FIG. 1). In a fume hood, filter paper tents were treated with insecticide dilutions or acetone for controls. The jars were then rapidly closed tightly with a metal lid. After 24 hours of exposure, mortality was scored with the aid of a magnifying glass.
All test compounds and solvents were >99% purity, and were purchased from Sigma-Aldrich Chemical (Milwaukee, Wis.). See Table 1 for a listing of the test compounds and their structures. Insecticide stock solutions were prepared at a standard concentration of 100 μg/μl in analytical grade acetone. For liquid insecticidal compounds, density in mg/μl was used to calculate weight on a per-volume basis. Stock solutions were held at −20° C. in sealed amber vials. In bioassay jars, filter paper tents were treated with stock volumes ranging from 2 to 20 μl, depending on the inherent toxicity of the test compound. These volumes of insecticide stock provided test concentrations of 200 to 2000 μg insecticide per replicate jar. A range of 4-5 concentrations plus a control were tested for each insecticide, and each range was repeated five times over at least three days. Controls received a volume of acetone identical to the highest insecticide volume that was tested (i.e., 10 μl for menthofuran; 20 μl for all other insecticides). Between uses, bioassay jars and lids were washed in a dishwasher, then baked 12-16 hr at 90° C. in a drying oven.
Probit and regression analyses were performed using the PROC PROBIT and PROC REG procedures, respectively. […] If control mortality ever exceeded 10% in a given replicate, that replicate was discarded.
as §5

[7] = Table 3, Hikone-R, no synergist, 24 hr
[8] = significance at p<0.05, method of Robertson and Preisler

c1ccc2sccc2c1 [Benzothiophene, benzothiophene]
Slope ± Std. Error (probit mortality line) ([1]; Table 2, Hikone-R, 24 hr): 4.42 ± 0.46 | Slope ± Std. Error (probit mortality line) [1, 7]: 4.42 ± 0.46 | response of Hikone-R relative to Canton-S (LC50 ratio Hikone÷Canton, FIG. 5), in words [1, 8]: significantly enhanced susceptibility; also recorded: greater susceptibility | response of para-ts1 relative to Canton-S (LC50 ratio, FIG. 7B), in words [2]: enhanced susceptibility | response of Rd1 relative to Canton-S (LC50 ratio, FIG. 7A), in words ([3]; in vivo): significantly enhanced susceptibility

CCCCOC=O [Butyl Formate, butyl formate]
LC50 ([1]; in vivo): 1570.0 μg insecticide per 0.5 liter of headspace | Slope ± Std. Error (probit mortality line) ([1]; in vivo): 8.82 ± 2.00 | response of para-ts1 relative to Canton-S (LC50 ratio, FIG. 7B), in words [2]: non-significant tolerance | LC50 ([3]; in vivo): 1246.0 μg insecticide per 0.5 liter of headspace | response of Rd1 relative to Canton-S (LC50 ratio, FIG. 7A), in words [3, 8]: non-significant tolerance

CCCCCCCOC=O [Heptyl Formate, heptyl formate]
LC50 ([1]; in vivo): 1483.0 μg insecticide per 0.5 liter of headspace | response of Hikone-R relative to Canton-S (LC50 ratio Hikone÷Canton, FIG. 5), in words ([1]; in vivo): non-significant tolerance | LC50 ([3]; in vivo): 1656.6 μg insecticide per 0.5 liter of headspace | response of Rd1 relative to Canton-S (LC50 ratio, FIG. 7A), in words [3, 8]: non-significant tolerance

CCCCCCOC=O [Hexyl Formate, hexyl formate]
Slope ± Std. Error (probit mortality line) ([1]; Table 2, Hikone-R, 24 hr): 3.26 ± 0.65 | Slope ± Std. Error (probit mortality line) [1, 7]: 3.26 ± 0.65 | response of Hikone-R relative to Canton-S (LC50 ratio Hikone÷Canton, FIG. 5), in words [1, 8]: non-significant tolerance | response of para-ts1 relative to Canton-S (LC50 ratio, FIG. 7B), in words [2]: non-significant tolerance | response of Rd1 relative to Canton-S (LC50 ratio, FIG. 7A), in words ([3]; in vivo): non-significant tolerance

Cc1coc2c1CC[C@H](C)C2 [Menthofuran, menthofuran]
Slope ± Std. Error (probit mortality line) ([1]; Table 2, Hikone-R, 24 hr): 4.12 ± 0.45 | Slope ± Std. Error (probit mortality line) [1, 7]: 4.12 ± 0.45 | response of Hikone-R relative to Canton-S (LC50 ratio Hikone÷Canton, FIG. 5), in words ([1]; significance at p<0.05, method of Robertson and Preisler, listed as mentho-): significantly enhanced susceptibility | response of Hikone-R relative to Canton-S (LC50 ratio Hikone÷Canton, FIG. 5), in words ([1]; significance at p<0.05, method of Robertson and Preisler, listed as menthofuran): significantly more susceptible; also recorded: greater susceptibility; also recorded: enhanced susceptibility | response of para-ts1 relative to Canton-S (LC50 ratio, FIG. 7B), in words [2]: enhanced susceptibility | response of Rd1 relative to Canton-S (LC50 ratio, FIG. 7A), in words ([3]; in vivo): significantly enhanced susceptibility | efficacy level when mixed with the P450 inhibitor PBO ([4]; 'levels on the same scale' as MITC and DDVP): < 100 µg/L | effect of PBO treatment on toxicity, in words ([4]; Canton-S, FIG. 6): increased menthofuran toxicity | effect of PBO treatment on toxicity, in words [5]: no effects

CCCOC=O [Propyl Formate, propyl formate]
LC50 (95% CL) [6]: 1833.0 (1787.0 − 1884.0) μg/jar | Slope ± Std. Error (probit mortality line) ([1]; Table 2, Hikone-R, 24 hr): 7.43 ± 1.26 | Slope ± Std. Error (probit mortality line) [1, 7]: 7.43 ± 1.26 | response of para-ts1 relative to Canton-S (LC50 ratio, FIG. 7B), in words [2]: non-significant tolerance | response of Rd1 relative to Canton-S (LC50 ratio, FIG. 7A), in words ([3]; in vivo): significant resistance

CC(C)(C)OC=O [t-Butyl Formate, tert-butyl formate]
LC50 (95% CL) [6]: 1981.0 (1917.0 − 2048.4) μg/jar | Slope ± Std. Error (probit mortality line) ([1]; Table 2, Hikone-R, 24 hr): 44.70 | Slope ± Std. Error (probit mortality line) [1, 7]: 44.70 | response of Hikone-R relative to Canton-S (LC50 ratio Hikone÷Canton, FIG. 5), in words [1, 8]: non-significant tolerance | response of para-ts1 relative to Canton-S (LC50 ratio, FIG. 7B), in words [2]: elevated tolerance; also recorded: significant tolerance | response of Rd1 relative to Canton-S (LC50 ratio, FIG. 7A), in words ([3]; in vivo): significant resistance; also recorded: significant tolerance

— patent US20070154393A1, “Bioassay for volatile low molecular weight insecticides and methods of use” (priority 2005, published 2007)
